# Key:
# [1] = system: colon cancer model Colon-26; settings: Colon-26 in BALB/C mice; cyclophosphamide i.p. 3 mg every 6 d x3, with or without (R)-ketorolac 0.1 mg/d x18
# Experimental: (§1) The colon cancer tumor model was established by using adult male BALB/C mice which were subcutaneously inoculated 106 well-growing Colon-26 tumor cells. Starting from the 7th day after tumor inoculation, the two largest diameters of the tumors were measured with vernier calipers twice a week, and the tumor size was expressed as area (square millimeters). After the tumors grew to a certain size, the mice were randomly divided into 4 groups, including a control group (n=5) and 3 treatment groups: the (R)-ketorolac monotherapy group (n=5) was administered by gavage, 0.1 mg/d, for a total of 12 d; the gemcitabine monotherapy group (n=4) was administered intraperitoneally, 2 mg/1 time every 3 d, for a total of 4 times; and the combined therapy group (n=5) adopted the two drugs in combination, and the dosage and frequency of administration were the same as those in the monotherapy group.
# The colon cancer tumor model was established as described in the above.
# After starting the treatment, the tumors were measured twice a week, and a tumor growth curve was made based on average tumor area±SEM.
# [2] = system: colon cancer model Colon-26; assay: (R)-ketorolac combined with gemcitabine on colon cancer model Colon-26, tumor growth curve; assay type: in vivo; settings: Colon-26 s.c. in male BALB/C mice; (R)-ketorolac alone by gavage 0.1 mg/d for 12 d
# Experimental: as §1
# After starting the treatment, the tumors were measured twice a week, and a tumor growth curve was made based on average tumor area=SEM.
# [3] = system: aortic dissection and aortic aneurysm; settings: oral administration; from CN202111115983.X; cited from earlier work
# [4] = stronger than (R)-ketorolac; cited from earlier work
# [5] = stronger than (R)-ketorolac; cited from earlier work; remark: listed apart in the source
smiles,measurement,setting,value
O=P1(N(CCCl)CCCl)NCCCO1 (stereo not drawn) [cyclophosphamide],cure rate,[1],16.7%
same,mice completely cured,[1],1 out of 6
O=C(c1ccccc1)c1ccc2n1CC[C@H]2C(=O)O [(R)-ketorolac],"effect on colon cancer tumor growth (tumor area growth curve, FIG. 16)",[2],no effect
same,"effect on aortic dilation, incidence and mortality of aortic dissection and aortic aneurysm",[3],inhibit pathological dilation of the aorta and reduce the incidence and mortality of aortic dissection and aortic aneurysm
O=C(c1ccccc1)c1ccc2n1CC[C@@H]2C(=O)O [(S)-ketorolac],anti-inflammatory effect relative to (R)-ketorolac,[4],60 times
same,analgesic effect relative to (R)-ketorolac,[5],230 times

# From patent publication US20260035372A1, “METHOD FOR PREPARING (R)-KETOROLAC AND USE THEREOF” (Yinuoke Medicine Science and Technology Co LTD, priority 2022, published 2026)
